According to ChEMBL document CHEMBL4390670, “4-Aryl Pyrrolidines as a Novel Class of Orally Efficacious Antimalarial Agents. Part 1: Evaluation of 4-Aryl- N-benzylpyrrolidine-3-carboxamides” (J Med Chem, 2019):

How the values were obtained:
Plasmodium chabaudi [1] = experiment: Antimalarial activity against chloroquine-resistant Plasmodium chabaudi ASCQ infected in NIH mouse assessed as inhibition of parasitemia at 10 mg/kg, po administered once daily for 4 days starting from 4 hrs post-infection and measured on day 4 by Peter's 4 day test relative to control; assay type: functional
[2] = Half life in mouse liver microsomes at 1 uM measured after 30 mins in presence of NADPH by LC-MS/MS analysis; assay type: ADME, Microsome; conditions: microsomes, 0.5 h, 1 µM
Plasmodium chabaudi [3] = experiment: Antimalarial activity against chloroquine-resistant Plasmodium chabaudi ASCQ infected in NIH mouse assessed as inhibition of parasitemia at 30 mg/kg, po administered once daily for 4 days starting from 4 hrs post-infection and measured on day 4 by Peter's 4 day test relative to control; assay type: functional
[4] = Half life in mouse at 2 mg/kg, iv by LC-MS analysis; assay type: ADME, organism-based; conditions: in vivo
[5] = target: Voltage-gated inwardly rectifying potassium channel KCNH2 (Homo sapiens, UniProt Q12809)
Description: Inhibition of Tracer Red binding to human ERG expressed in membranes by fluorescence polarization assay

Plasmodium chabaudi [6] = experiment: Antimalarial activity against chloroquine-resistant Plasmodium chabaudi ASCQ infected in NIH mouse assessed as inhibition of parasitemia at 3 mg/kg, po administered once daily for 4 days starting from 4 hrs post-infection and measured on day 4 by Peter's 4 day test relative to control; assay type: functional
[7] = Time at which plasma concentration stays above in-vitro antimalarial IC50 for chloroquine-sensitive Plasmodium falciparum 3D7 in NIH mouse infected with chloroquine-resistant Plasmodium chabaudi ASCQ at 30 mg/kg/day, po; assay type: ADME, organism-based; conditions: in vivo
Plasmodium falciparum [8] = experiment: Antimalarial activity against multidrug-resistant Plasmodium falciparum Dd2 measured after 72 hrs by SYBR Green 1 dye based fluorescence assay; assay type: functional, organism-based; conditions: Dd2, 72 h
Plasmodium falciparum [9] = experiment: microbe, parasite or virus in culture; conditions: 3D7, 72 h
Description: Antimalarial activity against chloroquine-sensitive Plasmodium falciparum 3D7 measured after 72 hrs by SYBR Green 1 dye based fluorescence assay

[10] = Apparent volume of distribution in mouse at 2 mg/kg, iv by LC-MS analysis; assay type: ADME, organism-based; conditions: in vivo, read-out: Vz
[11] = Oral bioavailability in mouse at 5 mg/kg by LC-MS analysis; conditions: in vivo
[12] = Apparent clearance in mouse at 2 mg/kg, iv by LC-MS analysis; assay type: ADME, organism-based; conditions: in vivo, read-out: CL(app)
Plasmodium chabaudi [13] = experiment: Antimalarial activity against chloroquine-resistant Plasmodium chabaudi ASCQ infected in po dosed NIH mouse assessed as inhibition of parasitemia administered starting from 4 hrs post-infection by Peter's 4 day test; assay type: functional

Sequence of Voltage-gated inwardly rectifying potassium channel KCNH2 (Q12809 whole entry): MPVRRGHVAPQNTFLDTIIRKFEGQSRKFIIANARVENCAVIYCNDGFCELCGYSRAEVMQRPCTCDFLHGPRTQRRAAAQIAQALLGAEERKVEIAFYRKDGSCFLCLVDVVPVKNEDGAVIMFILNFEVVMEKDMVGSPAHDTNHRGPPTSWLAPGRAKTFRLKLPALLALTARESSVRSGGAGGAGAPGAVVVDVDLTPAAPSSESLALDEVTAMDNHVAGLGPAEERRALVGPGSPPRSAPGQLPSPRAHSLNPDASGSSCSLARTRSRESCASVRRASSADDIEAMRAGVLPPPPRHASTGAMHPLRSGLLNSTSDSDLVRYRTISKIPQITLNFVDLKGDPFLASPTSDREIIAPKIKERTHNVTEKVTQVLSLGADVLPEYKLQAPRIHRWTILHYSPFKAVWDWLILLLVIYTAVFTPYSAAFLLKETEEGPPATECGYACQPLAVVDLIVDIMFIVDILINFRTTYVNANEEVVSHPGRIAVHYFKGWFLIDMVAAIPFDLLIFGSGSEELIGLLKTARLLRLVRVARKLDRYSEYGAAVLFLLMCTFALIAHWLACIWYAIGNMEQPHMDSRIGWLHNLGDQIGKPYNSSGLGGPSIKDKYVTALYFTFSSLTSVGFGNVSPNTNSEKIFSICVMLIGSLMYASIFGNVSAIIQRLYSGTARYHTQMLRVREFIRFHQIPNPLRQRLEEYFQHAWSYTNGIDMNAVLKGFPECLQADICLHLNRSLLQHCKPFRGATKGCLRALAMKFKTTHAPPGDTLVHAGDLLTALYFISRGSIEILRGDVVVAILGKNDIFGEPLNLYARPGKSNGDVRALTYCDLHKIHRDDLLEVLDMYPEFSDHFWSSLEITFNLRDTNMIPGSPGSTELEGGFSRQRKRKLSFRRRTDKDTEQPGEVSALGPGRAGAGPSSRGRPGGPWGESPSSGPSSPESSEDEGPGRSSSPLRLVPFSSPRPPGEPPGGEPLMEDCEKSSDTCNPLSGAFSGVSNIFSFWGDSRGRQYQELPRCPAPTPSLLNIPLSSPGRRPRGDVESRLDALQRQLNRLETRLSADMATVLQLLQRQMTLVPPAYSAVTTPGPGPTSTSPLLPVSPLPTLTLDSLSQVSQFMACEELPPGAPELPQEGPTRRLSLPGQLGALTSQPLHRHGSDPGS

C[C@H](NC(=O)[C@H]1CNC[C@@H]1c1ccc(C(F)(F)F)cc1)c1ccc(N(C)C)cc1
inhibition in vivo at 10 mg/kg (Plasmodium chabaudi [1]): 75.2% | t1/2 [2]: 0.633 h | inhibition in vivo at 30 mg/kg (Plasmodium chabaudi [3]): 98.7% | half-life [4]: 4.4 h | IC50 [5]: 32000 nM | inhibition in vivo at 3 mg/kg (Plasmodium chabaudi [6]): 22.4% | Time [7]: 24 h | IC50 (Plasmodium falciparum [8]): 21 nM | IC50 (Plasmodium falciparum [9]): 46 to 51 nM | Vd [10]: 1.3 L/kg | bioavailability [11]: 32% | clearance [12]: 3.3 mL/min/kg | ED90 (Plasmodium chabaudi [13]): 20 mg/kg/day | ED99 (Plasmodium chabaudi [13]): 30 mg/kg/day
